Legend:
JNK1 = JNK1 (Homo sapiens (Human), UniProt P45983); assay: In Vitro JNK1 Assay (TR-FRET, phosphorylation of GST-c-Jun); assay type: biochemical; settings: 0.2 nM active JNK1 kinase, 26.7 nM GST-c-Jun, 2 μM ATP, 30 min at room temperature
Method in brief: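 IC50 derived from percent inhibition across 10 serially diluted concentrations, with TR-FRET detection of phospho-c-Jun via an anti-phospho-c-Jun antibody after EDTA stop. Substrate was GST-c-Jun 1-79, reacted 30 min at room temperature in pH 7.0 HEPES buffer with MgCl2, DTT, vanadate and BSA.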

[1] = tested on: phospho(Ser63)-c-jun in HK-2 cells; assay: Cell-Based Assay for JNK Inhibitors (in-cell ELISA, phospho(Ser63)-c-jun after TNFα); settings: HK-2 cells (human proximal tubule cells), 60 minutes compound, then 10 ng/mL TNFα for 30 minutes
Method in brief: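 HK-2 human proximal tubule cells were seeded at 40,000 cells/well, cultured 24 h, then serum-starved 16–24 h before TNFα stimulation with compound. Phospho(Ser63)-c-jun was quantified by in-cell ELISA on fixed, permeabilised cells, using a rabbit phospho-specific primary (overnight, 4 °C) and an HRP-linked anti-rabbit secondary. Absorbance was read at 450 nm.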

Chain of JNK1 (P45983 whole entry): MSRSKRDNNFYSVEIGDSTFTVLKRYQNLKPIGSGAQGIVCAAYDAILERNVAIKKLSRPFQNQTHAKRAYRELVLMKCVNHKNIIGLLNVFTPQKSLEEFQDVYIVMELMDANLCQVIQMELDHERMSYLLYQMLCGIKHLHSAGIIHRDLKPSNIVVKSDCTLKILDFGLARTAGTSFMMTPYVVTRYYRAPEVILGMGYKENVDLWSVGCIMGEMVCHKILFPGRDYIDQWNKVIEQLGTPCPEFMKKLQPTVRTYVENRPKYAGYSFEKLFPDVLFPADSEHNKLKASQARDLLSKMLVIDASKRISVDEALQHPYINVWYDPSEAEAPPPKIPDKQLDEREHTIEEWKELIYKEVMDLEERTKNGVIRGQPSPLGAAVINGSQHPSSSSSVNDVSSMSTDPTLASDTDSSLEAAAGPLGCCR

Row | IC50 (JNK1) [µM] | EC50 [1] [µM] | SMILES
1 | 0.014 | 10 | COC(=O)c1c(CNC(=O)c2ccc(F)cc2)c(=O)c2ccc(Cl)cc2n1-c1ccccc1 [Example I-140, 7-Chloro-3-[(4-fluoro-benzoylamino)-methyl]-4-oxo-1-phenyl-1,4-dihydro-quinoline-2-carboxylic acid methyl ester]
2 | 0.024 | 39 | CS(=O)(=O)C1CCN(c2ccc(C(=O)NCc3cn(-c4ccccc4)c4cc(Cl)ccc4c3=O)cn2)CC1 [Example I-69, 4-Methanesulfonyl-3,4,5,6-tetrahydro-2H-[1,2′]bipyridinyl-5′-carboxylic acid (7-chloro-4-oxo-1-phenyl-1,4-dihydro-quinolin-3-ylmethyl)-amide]
3 | 0.088 | 28 | CN(C)c1cc(C(=O)NCc2cn(-c3ccccc3)c3cc(Cl)ccc3c2=O)ccn1 [Example I-41, N-(7-Chloro-4-oxo-1-phenyl-1,4-dihydro-quinolin-3-ylmethyl)-2-dimethyl amino-isonicotinamide]

— patent publication US8501732B2, “Aminomethyl quinolone compounds” (Hoffmann-La Roche Inc., priority 2011, dated 2013)
